According to patent publication US11467160B2, “Method of therapy selection for patient suffering from glioblastoma” (INSERM (Institut National de la Santé et de la Recherche …, priority 2017, dated 2022):
“Also recorded” adds a separate entry of the source.

What was measured:
GBM patients [1] = details: combined with temozolomide (Stupp 2014); cited from earlier work
[2] = system: CD90-expressing parental U251 cells; experiment: Boyden chamber migration assay, parental U251 cells; format: cell-based, human; details: for U251 cell migration: 10 μM inhibitor, 15 minutes pre-incubation, kept during 24-hours Boyden chamber assay
Procedure: (§1) FIG. 3: CD90 signals through SRC, FAK and RhoA molecules and CD90 dependent migration is blocked by dasatinib in vitro and in vivo. Parental (wt), control (shCTR #), CD90-down expressing (shCD90 #, n=3) U251 cells; as well as parental (wt), control (CTR #) and CD90 expressing (CD90 #, n=3) U87 cells were cultured at low cell density, lysed and analyzed by Western-blot for phosphoSRC, SRC, phosphoFAK, FAK and β-actin expression. Protein phosphorylation levels were calculated as described in Materials and Methods part (A). CD90low (black) and CD90high (blank) RNS (n=12, square symbol) and RADH (n=6, circle symbol) cells were analyzed by Western-blot for phosphoSRC, SRC, phosphoFAK, FAK and β-actin expression. Protein phosphorylation levels were calculated in (B). CD90-expressing parental U251 and CD90 #1 U87 cells were tested in a 24-hours Boyden chamber migration assay as described in FIG. 2 in the presence of DMSO (as control), PP2, dasatinib (both SRC inhibitors), Y15 (FAK inhibitor) and Y-27632 (ROCK inhibitor) (C). CD90-expressing parental U251 and CD90 #1 U87 cells were transfected without (siØ), with siRNA GL2 (control) or siRNA RhoA during 48 hours, and tested in a 24-hours Boyden chamber migration assay (D). RhoA expression was tested by Western-blot (D). Migration was given by the number of migrated cells obtained per field (C and D). CD90high RNS (n=4, square symbol) and RADH (n=4, circle symbol) cells were tested in a 24-hours Boyden chamber migration assay in the presence of DMSO or dasatinib (E). Representative fields are shown in (E). CD90 expressing U87 cells were orthotopically implanted in immunocompromised mice brain. One week after injection, mice were fed with control vehicle (n=7) or dasatinib (40 mg/kg/day, n=7) for 20 days. Control and dasatinib-treated mice were sacrificed 28 days after injection. Brains were collected and sections were analyzed after H&E staining (F). (*): p<0.05; (**): p<0.01; (***): p<0.001.
Boyden chamber migration assay—Parental, controls and transfected U251 and U87 cell lines were washed in DMEM, placed in Boyden chambers (10^5 cells/chamber in DMEM) that were placed in DMEM 20% FBS and incubated at 37° C. for 24 hours. After 24 hours, Boyden chambers were washed in PBS and cells were fixed in PBS 0.5% paraformaldehyde. Non-migrated cells inside the chambers were removed and cells were then stained with Giemsa (RAL Diagnostics, Martillac, France). After washes in PBS, pictures of 5 different fields were taken. Migration was given by the mean of number of migrated cells observed per field. […]

U87 CD90 cells [3] = experiment: Boyden chamber migration assay, U87 CD90 cells; format: cell-based, human; details: for U87 CD90 cell migration: 10 μM inhibitor, 15 minutes pre-incubation, kept during 24-hours Boyden chamber assay
Procedure: as §1
Preparation of CD90 knocked-down U251 and CD90 expressing U87 GBM cell lines—U251 cells were transfected with pLKO.1-puro plasmids containing shRNA constructs targeting CD90 mRNA and targeting non-mammalian mRNA (Sigma-Aldrich) using the Lipofectamine 2000 reagent (Life Technologies, St Aubin, France) according to the manufactor's instructions. After one week of culture under the selective antibiotic puromycin used at 10 μg/ml, transfected U251 cells were amplified and then cloned in 96-well plates at 0.1 cell/well. CD90 knocked-down U251 cell lines were expanded and selected for their decreased expression of CD90. U87 cells were transfected with CD90 cDNA (GeneWiz, Sigma-Aldrich) cloned into the pLKO.1-puro plasmid with EcoRI and BamHI enzymes using the Lipofectamine 2000 reagent. […]

[4] = system: primary CD90high GBM lines; experiment: Boyden chamber migration assay, primary CD90high GBM lines (RNS and RADH); format: cell-based, human; details: CD90high RNS (n=4) and RADH (n=4) cells, 24-hours Boyden chamber assay
Procedure: FIG. 3: CD90 signals through SRC, FAK and RhoA molecules and CD90 dependent migration is blocked by dasatinib in vitro and in vivo. Parental (wt), control (shCTR #), CD90-down expressing (shCD90 #, n=3) U251 cells; as well as parental (wt), control (CTR #) and CD90 expressing (CD90 #, n=3) U87 cells were cultured at low cell density, lysed and analyzed by Western-blot for phosphoSRC, SRC, phosphoFAK, FAK and β-actin expression. Protein phosphorylation levels were calculated as described in Materials and Methods part (A). CD90low (black) and CD90high (blank) RNS (n=12, square symbol) and RADH (n=6, circle symbol) cells were analyzed by Western-blot for phosphoSRC, SRC, phosphoFAK, FAK and β-actin expression. Protein phosphorylation levels were calculated in (B). […] Brains were collected and sections were analyzed after H&E staining (F). […]
Tumor specimens and cell culture—GBM samples were obtained after informed consent from patients admitted to the neurosurgery department at Rennes University Hospital for surgical resection in accordance with the local ethic committee. […] The extent of surgery was evaluated with an enhanced magnetic resonance imaging (MRI) performed within 24 hours after the resection. […]

CD90high RNS cells = experiment: Viability of CD90high RNS cells; format: cell-based, human
glioma cell invasion = details: preclinical phase; cited from earlier work
U87 CD90 cells [5] = experiment: Orthotopic xenograft mouse model with U87 CD90 cells; format: in vivo, mice
Procedure: as §1, with “CD90high RNS (n=4, square symbol) and RADH (n=4, circle symbol) cells were tested in a 24-hours Boyden chamber migration assay in the presence of DMSO or dasatinib (E). Representative fields are shown in (E). CD90 expressing U87 cells were orthotopically implanted in immunocompromised mice brain. One week after injection, mice were fed with control vehicle (n=7) or dasatinib (40 mg/kg/day, n=7) for 20 days. Control and dasatinib-treated mice were sacrificed 28 days after injection.” left out, “(*): p<0.05; (**): p<0.01; (***): p<0.001.” left out
Orthotopic mouse model—Eight-weeks old male Balb/c NOD-SCID mice (Janvier, Saint Berthevin, France) were housed in an animal care unit authorized by the French Ministries of Agriculture and Research (Biosit, Rennes, France—Agreement No. B35-238-40). […] Mice were daily clinically monitored and sacrificed 28 days after implantation. […] Tumor burden was compared in the different groups of mice and analyzed using ImageJ software. […]
To evaluate the CD90-dependent effects of dasatinib in vivo, U87 CD90 cells were used in an orthotopic xenograft mouse model. […] Mice were analyzed using MRI 28 days post-injection and were sacrificed. […]

[6] = system: bevacizumab-treated recurrent GBM patients; details: phase II trial (Lassman 2015); cited from earlier work
recurrent GBM patients = details: Phase II, with temozolomide (Groves 2002); cited from earlier work
GBM patients [7] = details: phase III clinical trial (Levin 2006); cited from earlier work
[8] = 1 μM, 24-hours Boyden chamber assay
[9] = dasatinib 40 mg/kg fed daily for 20 days from one week post-implantation, 28 days post-injection

CC(C)[C@H]1C(=O)N[C@@H](CCCN=C(N)N)C(=O)NCC(=O)N[C@@H](CC(=O)O)C(=O)N[C@H](Cc2ccccc2)C(=O)N1C [Cilengitide]
Effects on GBM patients (GBM patients [1]): limited effects

CC(C)(C)n1nc(-c2ccc(Cl)cc2)c2c(N)ncnc21 [PP2]
U251 cell migration [2]: dramatically reduced
U87 CD90 cell migration (U87 CD90 cells [3]): dramatically reduced

Cl.Cl.Cl.Cl.Nc1cc(N)c(N)cc1N [Y15]
Effect on the migration of U251 cells [2, 8]: no or limited effect
Effect on the migration of U87 CD90 cells (U87 CD90 cells [3]; [8]): no or limited effect

C[C@@H](N)[C@H]1CC[C@H](C(=O)Nc2ccncc2)CC1 [Y27632]
inhibition at 10 µM ([2]; Homo sapiens, U-251, U251 cells, 10 μM, 24-hours Boyden chamber assay, read-out: Migration inhibition (reduction)): 53%
inhibition at 10 µM (U87 CD90 cells [3]; Homo sapiens, U87 CD90 cells, 10 μM, 24-hours Boyden chamber assay, read-out: Migration inhibition (reduction)): 76%

Cc1nc(Nc2ncc(C(=O)Nc3c(C)cccc3Cl)s2)cc(N2CCN(CCO)CC2)n1 [dasatinib, N-(2-chloro-6-methylphenyl)-2-[[6-[4-(2-hydroxyethyl)piperazin-1-yl]-2-methylpyrimidin-4-yl]amino]-1,3-thiazole-5-carboxamide]
Migration of primary CD90high GBM lines [4]: dramatically reduced
Viability of CD90high RNS cells (CD90high RNS cells): affects viability
U251 cell migration [2]: dramatically reduced
U87 CD90 cell migration (U87 CD90 cells [3]): dramatically reduced
Inhibiting bevacizumab-induced glioma cell invasion (glioma cell invasion): promising effect
CD90 tumor migration/invasion properties in vivo (U87 CD90 cells [5]; U87 CD90 orthotopic xenograft, dasatinib 40 mg/kg): dramatically reduces; also recorded: blocks; also recorded: inhibits
Mice with clear encapsulated tumors with regular edges, H&E staining (U87 CD90 cells [5]; [9]): 4 out of 7
Mice with clear encapsulated tumors with regular edges, MRI (U87 CD90 cells [5]; [9]): 3 out of 4
Improvement of bevacizumab-treated recurrent GBM patients [6]: failed to improve

CNC(=O)[C@@H](NC(=O)[C@H](CC(C)C)[C@H](O)C(=O)NO)C(C)(C)C [marimastat]
Effects on recurrent GBM patients (recurrent GBM patients): encouraging effects
Patient survival (GBM patients [7]): failed to improve
